Experimental findings from US20100267616A1, “ACUTE R[…]” (ImmuneRegen Biosciences, Inc., priority 2003, published 2010) are described below.

This experiment deals with diesel fuel smoke lung injury (model of ARDS and SARS). Set-up: species or system rats and rabbits. The following applies: in vivo, iv.

For the substance Sar^9, Met (02) 11-Substance P, the 6-keto-PGF1α result is recorded as “decreased”, the PGE2 result was “decreased”, the clara cell necrosis result is listed as “attenuated” and the “damage to the alveolar-capillary barrier membrane” value is recorded as “attenuates”. In addition, the “pulmonary alveolar macrophage number” value is reported as “reduced”.
